Molecules are shown by their SMILES.

The record followed here is ChEMBL document CHEMBL1129474, “Quinazoline antifolates thymidylate synthase inhibitors: lipophilic analogues with modification to the C2-methyl substituent” (J Med Chem, 1996).

Assay [1] in a line: Relative resistant ratio of compound as L1210:1565 IC50 over L1210 IC50. In kind it is functional.
Assay [2] relates to L1210. As to the kind of experiment: In vitro inhibitory activity against L1210 cell growth. The following applies: Mus musculus. Type of assay: functional, cell-based.
Assay [3] concerns the target Thymidylate synthase (Mus musculus, UniProt P07607). As to the kind of experiment: In vitro inhibitory activity against thymidylate synthase partially purified from L1210 mouse leukemia cells. In kind it is cell-based.

Thymidylate synthase, sequence (P07607 whole entry): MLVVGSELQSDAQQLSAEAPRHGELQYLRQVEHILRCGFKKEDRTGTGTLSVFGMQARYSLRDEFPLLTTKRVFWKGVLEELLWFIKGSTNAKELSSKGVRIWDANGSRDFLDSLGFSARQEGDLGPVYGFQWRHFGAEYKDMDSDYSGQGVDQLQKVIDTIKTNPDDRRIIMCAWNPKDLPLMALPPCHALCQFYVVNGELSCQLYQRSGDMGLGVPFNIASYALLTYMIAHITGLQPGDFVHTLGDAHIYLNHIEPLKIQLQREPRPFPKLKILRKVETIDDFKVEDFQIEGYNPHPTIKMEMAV

As to `C#CCN(Cc1cc2c(O)nc(CN(C)C)nc2cc1C)c1ccc(C(=O)NCc2cccc([N+](=O)[O-])c2)c(F)c1`, the Ratio in assay [1] was 0.76. Half-maximal inhibition in assay [2] (IC50) was put at 680 nM.
In the case of `C#CCN(Cc1cc2c(O)nc(CN(C)CCN(C)C)nc2cc1C)c1ccc(C(=O)NCc2cccc([N+](=O)[O-])c2)c(F)c1`, the values for the IC50 in assay [3] and in assay [2] were 200 nM and 950 nM, respectively.
`C#CCN(Cc1cc2c(O)nc(CO)nc2cc1C)c1ccc(C(=O)NCc2cccc([N+](=O)[O-])c2)c(F)c1`: the Ratio in assay [1] amounted to 0.17. The results for the IC50 in assay [3] and in assay [2] were 72 nM and 700 nM, respectively.
`C#CCN(Cc1ccc2nc(CSc3ncccn3)nc(O)c2c1)c1ccc(C(=O)NCc2cccc([N+](=O)[O-])c2)cc1`: the IC50 in assay [3] stood at 480 nM; in assay [2], 2000 nM.
The corresponding values for `C#CCN(Cc1ccc2nc(CC#N)nc(O)c2c1)c1ccc(C(=O)NCc2cccc([N+](=O)[O-])c2)cc1` are 380 nM and 11000 nM.
Consider `C#CCN(Cc1ccc2nc(CSc3ncccn3)nc(O)c2c1)c1ccc(C(=O)NC(CCC(=O)O)C(=O)O)cc1` (configuration not stated), for which the IC50 in assay [2] is 100000 nM.
For the compound `Cc1nc2cc(C)c(CN(C)c3ccc(C(=O)NCc4cccc([N+](=O)[O-])c4)c(F)c3)cc2c(=O)[nH]1`, the IC50 was 56 nM in assay [3] and 76 nM in assay [2].
In assay [3], `C#CCN(Cc1cc2c(=O)[nH]c(CN(C)C)nc2cc1C)c1ccc(C(=O)NCc2cccc([N+](=O)[O-])c2)c(F)c1` came in with an IC50 of 140 nM.
For `C#CCN(Cc1ccc2nc(CN(C)CCN(C)C)nc(O)c2c1)c1ccc(C(=O)NCc2cccc([N+](=O)[O-])c2)cc1`, the IC50 turned out to be 820 nM in assay [3] and 5000 nM in assay [2].
For the compound `C#CCN(Cc1cc2c(O)nc(CN3CCN(C)CC3)nc2cc1C)c1ccc(C(=O)NCc2cccc([N+](=O)[O-])c2)c(F)c1`, in assay [1], the Ratio stood at 1.1. The IC50 in assay [3] worked out at 110 nM; in assay [2], 580 nM.
`C#CCN(Cc1ccc2nc(CN(C)C)nc(O)c2c1)c1ccc(C(=O)NCc2cccc([N+](=O)[O-])c2)cc1`: the IC50 was 620 nM in assay [3] and 2700 nM in assay [2].
`C#CCN(Cc1ccc2nc(CNS(C)(=O)=O)nc(O)c2c1)c1ccc(C(=O)NCc2cccc([N+](=O)[O-])c2)cc1`: the figures for the half-inhibitory concentration (IC50) in assay [3] and in assay [2] were 180 nM and above 20000 nM, respectively.
For `C#CCN(Cc1cc2c(O)nc(CSc3ncccn3)nc2cc1C)c1ccc(C(=O)NCc2cccc([N+](=O)[O-])c2)c(F)c1`, in assay [1], the Ratio stood at 0.65. In assay [2], this compound returned an IC50 of 640 nM.
Turning to `C#CCN(Cc1ccc2nc(CN3CCN(C)CC3)nc(O)c2c1)c1ccc(C(=O)NCc2cccc([N+](=O)[O-])c2)cc1`, the IC50 in assay [3] stood at 900 nM; in assay [2], 5300 nM.
Consider `C#CCN(Cc1ccc2nc(C)nc(O)c2c1)c1ccc(C(=O)NCc2cccc([N+](=O)[O-])c2)cc1`, for which the Ratio in assay [1] was determined as 0.3. In assay [2], this compound registered an IC50 of 1400 nM.
For the compound `C#CCN(Cc1ccc2nc(C)nc(O)c2c1)c1ccc(C(=O)NC(CCC(=O)O)C(=O)O)cc1` (configuration not stated), the 50% inhibitory concentration (IC50) in assay [2] is 150 nM.
For `C#CCN(Cc1ccc2nc(CSc3nccc(N)n3)nc(O)c2c1)c1ccc(C(=O)NCc2cccc([N+](=O)[O-])c2)cc1`, the IC50 came to 840 nM in assay [3] and 2200 nM in assay [2].
Take `C#CCN(Cc1ccc2nc(CSc3nc(N)cc(O)n3)nc(O)c2c1)c1ccc(C(=O)NCc2cccc([N+](=O)[O-])c2)cc1`: the figures for the IC50 in assay [3] and in assay [2] were 1040 nM and 14000 nM, respectively.
The like results for `Cc1cc2nc(CO)nc(O)c2cc1CN(C)c1ccc(C(=O)NCc2cccc([N+](=O)[O-])c2)c(F)c1` were, in that order, 80 nM and 700 nM.
Turning to `C#CCN(Cc1cc2c(O)nc(C)nc2cc1C)c1ccc(C(=O)NCc2cccc([N+](=O)[O-])c2)c(F)c1`, the Ratio in assay [1] was 1. This compound registered a half-inhibitory concentration (IC50) in assay [2] of 260 nM.
For `C#CCN(Cc1ccc2nc(C)nc(O)c2c1)c1ccc(C(=O)NC(Cc2cccc([N+](=O)[O-])c2)C(=O)O)cc1` (configuration not stated), the IC50 in assay [3] is 10 nM; in assay [2], 9000 nM.
On to `C#CCN(Cc1ccc2nc(CCl)nc(O)c2c1)c1ccc(C(=O)NCc2cccc([N+](=O)[O-])c2)cc1`, for which the results for the IC50 in assay [3] and in assay [2] were 1210 nM and 2400 nM, respectively.
In the case of `C#CCN(Cc1ccc2nc(CSc3nccc(O)n3)nc(O)c2c1)c1ccc(C(=O)NCc2cccc([N+](=O)[O-])c2)cc1`, the half-inhibitory concentration (IC50) in assay [3] was 3300 nM; in assay [2], 12000 nM.
Regarding `Cc1cc2nc(CN3CCN(C)CC3)nc(O)c2cc1CN(C)c1ccc(C(=O)NC(CCC(=O)O)C(=O)O)c(F)c1` (configuration not stated), the IC50 was 28 nM in assay [3] and above 20000 nM in assay [2].
The corresponding values for `C#CCN(Cc1cc2c(O)nc(CN(CCO)CCO)nc2cc1C)c1ccc(C(=O)NCc2cccc([N+](=O)[O-])c2)c(F)c1` are 160 nM and 7800 nM.
The corresponding values for `C#CCN(Cc1ccc2nc(COCCOC)nc(O)c2c1)c1ccc(C(=O)NCc2cccc([N+](=O)[O-])c2)cc1` are 640 nM and 6700 nM.
The like results for `C#CCN(Cc1ccc2nc(CN3CCC(O)C3)nc(O)c2c1)c1ccc(C(=O)NCc2cccc([N+](=O)[O-])c2)cc1` (configuration not stated) were, in that order, 600 nM and 9000 nM.
On to `C#CCN(Cc1ccc2nc(CO)nc(O)c2c1)c1ccc(C(=O)NCc2cccc([N+](=O)[O-])c2)cc1`, for which the IC50 in assay [3] is 300 nM; in assay [2], 4800 nM.
The corresponding values for `C#CCN(Cc1ccc2nc(CNC)nc(O)c2c1)c1ccc(C(=O)NCc2cccc([N+](=O)[O-])c2)cc1` are 4200 nM and 7800 nM.
As for `C#CCN(Cc1cc2c(=O)[nH]c(CSc3ncccn3)nc2cc1C)c1ccc(C(=O)NCc2cccc([N+](=O)[O-])c2)c(F)c1`, it took 110 nM to reach half-maximal inhibition in assay [3] (IC50).
Turning to `C#CCN(Cc1ccc2nc(CN3CCOCC3)nc(O)c2c1)c1ccc(C(=O)NCc2cccc([N+](=O)[O-])c2)cc1`, the IC50 in assay [3] stood at 380 nM; in assay [2] it was 1900 nM.
The like results for `Cc1cc2nc(CN(C)C)nc(O)c2cc1CN(C)c1ccc(C(=O)NCc2cccc([N+](=O)[O-])c2)c(F)c1` were, in that order, 84 nM and 580 nM.
For `C#CCN(Cc1cc2c(O)nc(CN3CCOCC3)nc2cc1C)c1ccc(C(=O)NCc2cccc([N+](=O)[O-])c2)c(F)c1`, in assay [1], the Ratio worked out at 1.1. For the same compound, the IC50 stood at 100 nM in assay [3] and 340 nM in assay [2].
`C#CCN(Cc1ccc2nc(CN)nc(O)c2c1)c1ccc(C(=O)NCc2cccc([N+](=O)[O-])c2)cc1`: the results for the IC50 in assay [3] and in assay [2] were above 1700 nM and above 20000 nM, respectively.
